# In article PMC3912202 (2014):
# Experiments:
# [1] = test system: double stranded polyriboadenylic acid (ds poly-A) (RNA, polymer) A; experiment: circular dichroism; details: 10 mM citrate-phosphate buffer, pH 4.5, 20°C; 100.0 µM ds poly-A, up to 55.60 µM ST
# [2] = test system: double stranded polyriboadenylic acid (ds poly-A) (RNA, polymer) A; experiment: absorption titration; details: 10 mM citrate-phosphate buffer, pH 4.5, 20°C; up to P/D 100 (301.09 µM ds poly-A, 3.05 µM ST)
# [3] = test system: double stranded polyriboadenylic acid (ds poly-A) (RNA, polymer) A; experiment: fluorescence titration; details: 10 mM citrate-phosphate buffer, pH 4.5, 20°C; up to P/D 100 (510.50 µM ds poly-A, 5.0 µM ST)
# [4] = test system: double stranded polyriboadenylic acid (ds poly-A) (RNA, polymer) A; experiment: thermal melting profile (CD); details: 10 mM citrate-phosphate buffer, pH 4.5; 100.0 µM ds poly-A, D/P 0.53; no change, transition around 74°C
# [5] = test system: single stranded polyriboadenylic acid (ss poly-A) (RNA, polymer) A; experiment: absorption titration, Scatchard, McGhee-von Hippel fit; details: 10 mM Na+; 10 mM citrate-phosphate buffer, pH 7.0, 20°C; intrinsic constant, per nucleotide; per base
# [6] = test system: single stranded polyriboadenylic acid (ss poly-A) (RNA, polymer) A; experiment: fluorescence titration, Scatchard, McGhee-von Hippel fit; details: 10 mM Na+; 10 mM citrate-phosphate buffer, pH 7.0, 20°C; intrinsic constant, per nucleotide; per base
structure (smiles),measurement,setting,value
Cc1cc2nc3cc(C)c(N)cc3[n+](-c3ccccc3)c2cc1N,binding,[1],no
same,binding,[2],no
same,binding,[3],no
same,binding,[4],no
same,K′,[5],5.98±0.20 × 10^5 M^-1
same,K′,[6],6.15±0.20 × 10^5 M^-1
